Patent US6370478B1, “Methods for drug interaction prediction using biological response profiles” (Rosetta Inpharmatics, Inc., priority 1998, dated 2002)

Assays:
[1] = test system: Yeast (Saccharomyces cerevisiae, Strain YPH499) mRNA transcripts; assay: Yeast mRNA response profiles measured with DNA microarrays (transcript measurement); type: cell-based
Procedure: Experimental methods were described in Marton et al., 1998, Drug Target Validation And Identification of Secondary Drug Target Effects Using DNA Microarrays, NATURE-MEDICINE 4:1293-301, incorporated herein by reference for all purposes. Dose response curves are plotted only for about 50 genes with the largest responses. […] In this case, any concentration near or above about 1 μg/ml would be informative, and the choice could be refined based on knowledge of the significance of the set of genes that responds at the higher concentrations.
The following experimental methods were used for all the examples. Specific experimental design is described by the examples and their accompanying figures. The specific protocol was also described in Marton et al., 1998, Drug Target Validation And Identification of Secondary Drug Target Effects Using DNA Microarrays, NATURE-MEDICINE 4:1293-301.
Yeast (Saccharomyces cerevisiae, Strain YPH499, see, Sikorski and Hieter, 1989, A system of shuttle vectors and yeast host strains designated for efficient manipulation of DNA in Saccharomyces cerevisiae, Genetics 122:19-27) cells were grown in YAPD at 30° C. to an OD600 of 1.0 (±0.2), and total RNA prepared by breaking cells in phenol/chloroform and 0.1 % SDS by standard procedures (Ausubel et al., 1995, Current Protocols in Molecular Biology, Greene Publishing and Wiley-Interscience, New York, Ch. 13). Poly(A)^+ RNA was selected by affinity chromatography on oligo-dT cellulose (New England Biolabs) essentially as described in Sambrook et al. (Molecular Cloning—A Laboratory Manual (2nd Ed.), Vol. 1, Cold Spring Harbor Laboratory, Cold Spring Harbor, N.Y., 1989). […]
Fluorescently-labeled cDNAs (2-6 μg) are resuspended in 4×SSC plus 1 μg/μl tRNA as carrier and filtered using […] filters (Millipore, Bedford, Mass.). […] Microarrays were scanned with a fluorescence laser-scanning device as previously described (Schena et al., 1995, Science 270:467-470; Schena et al., 1995, Proc. Natl. Acad. Sci. USA 93:[…]) and the results (including the positions of perturbations) are recorded.

wild type yeast cells = settings: 10 micrograms/ml; Gari et al., 1997; cited from earlier work

**Q.** For `Clc1ccccc1C(c1ccccc1)(c1ccccc1)n1ccnc1` [Clotrimazole], which “relationship of the response profiles of Clotrimazole and Cyclosporin A” value ([1]; FIG. 4, overlap with effects of opposite sign) is on record?
**A.** anti-correlation

**Q.** Which “effect on the growth rate” value (wild type yeast cells) does the source give for `C[C@H]1c2cccc(O)c2C(=O)C2=C(O)[C@]3(O)C(=O)C(C(N)=O)=C(O)[C@@H](N(C)C)[C@@H]3[C@@H](O)[C@@H]21` [doxycycline] here?
**A.** no significant effect

**Q.** What does the source list for `C=CC[C@@H]1/C=C(\C)C[C@H](C)C[C@H](OC)[C@H]2O[C@@](O)(C(=O)C(=O)N3CCCC[C@H]3C(=O)O[C@H](/C(C)=C/[C@@H]3CC[C@@H](O)[C@H](OC)C3)[C@H](C)[C@@H](O)CC1=O)[C@H](C)C[C@@H]2OC` [FK506]?
**A.** concentration at which genes mediated by the primary target (calcineurin) reach saturation response ([1]; FIG. 1, dose response of about 50 genes with the largest responses): about 1 μg/ml; correlation coefficient between the two drug response profiles ([1]; FK506 (1.6 μg/ml) vs Cyclosporin A (30 μg/ml), genes with significant up and down regulations at the 95% confidence level, FIG. 3): 0.86
